Experiment in all cases: NCI-60 cell line screen, 48 h
Assay [1] concerns SNB-19 CNS.
The subject of assay [2] is NCI-H23 lung.
The test system of assay [3] is OVCAR-4 ovarian.
Assay [4] concerns UACC-62 melanoma.
The test system of assay [5] is CCRF-CEM leukemia.
In assay [6] the test system is COLO 205 colon.
Assay [7] relates to 786-0 renal.
Assay [8] concerns SF-295 CNS.
Assay [9] has as its system SR leukemia.
Assay [10] has as its system HCT-15 colon.

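Briefly, cells in 96-well plates were exposed to five compound concentrations for 48 h, and endpoints were estimated by linear interpolation. Here, GI50 denotes the concentration required for 50% inhibition of growth. TGI is the concentration that stops growth completely.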

In the case of `O=C(Nc1ccccc1Cl)c1ccc(NC2=C(Cl)C(=O)N(Cc3ccccc3)C2=O)cc1`, the GI50 in assay [1] was more than 100 µM; in assay [2] it was 19.2 µM; in assay [3] it was 78.9 µM; in assay [4], 19.5 µM; in [5] it was more than 100 µM; in assay [6], 51.3 µM. Moreover, the GI50 in [7] is 24.8 µM; in assay [8], 26.6 µM; in assay [9], 15.7 µM; in assay [10] it was 15 µM. Moreover, the TGI in assay [1] was more than 100 µM; in assay [2] it was 35.7 µM; in [3], more than 100 µM; in assay [4] it was 41.1 µM; in [5], more than 100 µM; in [6] it was more than 100 µM. Moreover, the TGI in [7] is 57.3 µM; in assay [8] it was more than 100 µM; in [9], 41.5 µM; in assay [10], 29.2 µM.

For `CC(=O)OC1COC(N2C(=O)C(=O)c3cc(Br)c([N+](=O)[O-])cc32)C(OC(C)=O)C1OC(C)=O` (stereo not given), the TGI in assay [1] was more than 100 µM; in assay [2], more than 100 µM; in assay [3] it was more than 100 µM; in [4], more than 100 µM; in assay [5], 89.2 µM; in assay [6], more than 100 µM. In addition, the TGI in assay [7], in [8], in assay [9] and in assay [10] was more than 100 µM each time.

Consider `CC(O)CN(CCN(CC(C)O)CC(C)O)CC(C)O.O=[N+]([O-])O.[Cu+2]` (stereo not given), for which the GI50 in assay [1] is 30.5 µM; in assay [2] it was more than 100 µM; in assay [3] it was 73.6 µM; in assay [4] it was more than 100 µM; in assay [5], more than 100 µM; in assay [6], more than 100 µM. For the same compound, the GI50 in [7] is more than 100 µM; in [8], 9.07 µM; in assay [9] it was more than 100 µM; in [10], more than 100 µM. Besides, the TGI in assay [1] is 74.5 µM; in [2], more than 100 µM; in assay [3] it was more than 100 µM; in [4] it was more than 100 µM; in assay [5], more than 100 µM; in assay [6], more than 100 µM. The TGI in [7], in assay [8], in assay [9] and in assay [10] was more than 100 µM throughout.

Take `O=Nc1c(-c2cccc([N+](=O)[O-])c2)nc2ncccn12`: the GI50 in assay [1] was 18 µM; in assay [2], 15.1 µM; in assay [3] it was 12 µM; in [4], 14.4 µM; in assay [5], 1.86 µM; in [6] it was 6.25 µM. Besides, the GI50 is 17.6 µM in [7], 21.9 µM in assay [8], 0.218 µM in [9] and 3.77 µM in assay [10]. Further, the TGI in assay [1] is 39.6 µM; in assay [2], 34.9 µM; in [3], 55.2 µM; in [4] it was 29.3 µM; in assay [5] it was 4.44 µM; in assay [6], 19.9 µM. Moreover, the TGI in [7] amounted to 54.7 µM; in [8], 66.5 µM; in [9], 2.22 µM; in assay [10], 17.8 µM.

As to `COC(=O)c1oc2c(C(=O)/C=C/c3ccc(OC)cc3)c(OCCCN3CCCCC3)ccc2c1C`, the GI50 in [1] was 2.1 µM; in assay [2], 1.3 µM; in [3], 2.49 µM; in [4], 1.54 µM; in [5] it was 0.783 µM; in assay [6], 1.51 µM. Also, the GI50 in [7] was 1.49 µM; in assay [8], 1.8 µM; in assay [9] it was 1.45 µM; in [10], 0.901 µM. In addition, the TGI amounted to 8.92 µM in [1]; 3.47 µM in [2]; 9.15 µM in [3]; 3 µM in assay [4]; 3.4 µM in [5]; 3.13 µM in assay [6]. Further, the TGI in assay [7] came out at 3.11 µM; in assay [8], 3.93 µM; in assay [9], 3.78 µM; in assay [10], 2.35 µM.

Take `Fc1ccc(Nc2nc(Nc3ccc(-c4nc5ccccc5[nH]4)cc3)nc(N3CCCC3)n2)cc1`: the GI50 was 3.93 µM in assay [1]; 3.36 µM in [2]; 3.65 µM in assay [3]; 1.77 µM in [4]; 2.98 µM in [5]; 1.81 µM in assay [6]. Besides, the GI50 is 1.8 µM in assay [7], 1.97 µM in [8], 0.927 µM in assay [9] and 2.25 µM in [10]. In addition, the TGI in assay [1] worked out at 19.1 µM; in [2], 16.8 µM; in assay [3], 14.6 µM; in assay [4], 3.61 µM; in assay [5] it was 10.4 µM; in assay [6] it was 3.73 µM. For the same compound, the TGI in [7] is 3.35 µM; in [8], 4.37 µM; in [9] it was 6.5 µM; in [10] it was 6.03 µM.

`Cc1ccccc1NC(=O)c1[nH]c(=S)nc(N)c1-c1ccccc1C`: the TGI in assay [1], in assay [2], in assay [3], in [4], in [5] and in assay [6] was more than 100 µM each time. Also, the TGI in [7], in assay [8], in [9] and in assay [10] was more than 100 µM each time.

For `CCOC(=O)C(=Cc1ccccc1Br)C(=O)OCC`, the TGI in assay [1] was 6.01 µM; in assay [2], 7.79 µM; in [3], 16.5 µM; in [4], 4.79 µM; in assay [5], more than 100 µM; in assay [6] it was 6.77 µM. Moreover, the TGI in assay [7] was more than 100 µM; in assay [8] it was 8.88 µM; in assay [9], 0.723 µM; in assay [10] it was 3.71 µM.

These data come from PubChem BioAssay (NCI).
